Literature values, collected in patent US20060019940A1, “Novel benzoxazocines and their therapeutic use” (priority 2002, published 2006).

Assays:
[1] = tested on: synaptosomal uptake of dopamine, norepinephrine and serotonin; details: order of potency (+)-nefopam>(±)-nefopam>(−)-nefopam
[2] = order of potency (+)-nefopam>(±)-nefopam>(−)-nefopam

Compound: CN1CCO[C@@H](c2ccccc2)c2ccccc2C1 [(+)-nefopam]
- dopamine, norepinephrine and serotonin uptake inhibitory properties compared with (−)-nefopam [1]: more potent
- analgesic properties compared with (−)-nefopam [2]: more potent
